One data set concerns AdV5. In words: Anti-AdV activity assay (IFA of hexon), secondary screen, AdV5. The class given is cell-based, Human adenoviruses type 5. Conditions: for EC50: 48 h, IFA of hexon, 0.02 to 5 μM; for Selective Index AdV5: CC50/EC50, Vero cells.
The next data set has as its system AdV3. In words: Anti-AdV activity assay (IFA of hexon), secondary screen, AdV3. The note with it: for Selective Index AdV3: CC50/EC50, Vero cells; for EC50: 48 h, IFA of hexon, 0.02 to 5 μM. The class given is cell-based, Human adenoviruses type 3.
The test system of another data set is adenovirus 5. Details: method as in ref 28, 31 = [28]. Conditions: cited from earlier work.
Another data set is described as follows: in vitro. The note with it: African green monkey.
For the next data set, the system named is Aurora A. Details: method as in ref 25 = [25]. The note with it: cited from earlier work.
For another data set, the system named is Aurora A/B/C. The note with it: cited from earlier work.

For the molecule `C#Cc1cccc(Nc2ncnc3cc(OCCOC)c(OCCO)cc23)c1.Cl` [DesMethyl Erlotinib], the EC50 is greater than 5000 nM with AdV5 (Vero cells) and 510 nM in the data set on AdV3 (Vero cells). Further, the “Selective Index AdV3” value in the data set on AdV3 is reported as greater than 9.72. In addition, the CC50 with Vero cells was greater than 5000 nM.
In the case of `c1cncc(CN2CCC(n3ncc4c(N5CCOCC5)nc(-c5ccc6[nH]ccc6c5)nc43)CC2)c1` [WAY-600], the “Selective Index AdV5” value in the data set with AdV5 is listed as 2.86. Also, the EC50 in the data set with AdV5 (Vero cells) was 1090 nM; in the data set with AdV3 (Vero cells), 560 nM. The “Selective Index AdV3” value in the data set on AdV3 is listed as 5.51. The CC50 with Vero cells was determined as 3110 nM.
`O=C(/C=C\n1cnc(-c2cc(C(F)(F)F)cc(C(F)(F)F)c2)n1)NNc1ccccn1` [KPT-335]: the “Selective Index AdV5” value with AdV5 is reported as 3.14. The EC50 with AdV5 (Vero cells) turned out to be 610 nM; in the data set with AdV3 (Vero cells), 150 nM. In the data set on AdV3, the “Selective Index AdV3” value was 12.65. Moreover, the “reported inhibition of replication of adenovirus 5” value in the data set with adenovirus 5 is “inhibit the replication of adenovirus 5”. In “in vitro” (Vero cells), the CC50 at 48 h is 1900 nM.
Take `Cc1cc(Nc2cc(N3CCN(C)CC3)nc(/C=C/c3ccccc3)n2)n[nH]1.O=C(O)C(O)C(O)C(=O)O` [ENMD-2076 L-(+)-Tartaric acid]: the EC50 worked out at 1390 nM in the data set on AdV5 (Vero cells) and 1350 nM in the data set with AdV3 (Vero cells). Also, the “selectivity for Aurora A than Aurora B” value in the data set with Aurora A is listed as 25 fold. For the same molecule, the CC50 with Vero cells came out at 4340 nM.
As to `CC[C@@H](C)Nc1cc(C(=O)N[C@H]2C[C@H]3CC[C@@H](C2)N3c2ccc(C(=O)C3CC3)cn2)c(C)cc1C(N)=O` [XL888], the “Selective Index AdV5” value in the data set on AdV5 was greater than 10.33. The EC50 in the data set on AdV5 (Vero cells) came out at 480 nM; in the data set with AdV3 (Vero cells), 170 nM. The “Selective Index AdV3” value in the data set on AdV3 is given as greater than 29.69. The molecule further displayed a CC50 with Vero cells greater than 5000 nM.
For `CCNC(=O)c1[nH]nc(-c2cc(Cl)c(O)cc2O)c1-c1ccc(OC)cc1` [VER-49009] the same measures were greater than 60.00, 80 nM, 30 nM, greater than 186.00 and greater than 5000 nM.
In the case of `COc1cc(Nc2ncc(F)c(Nc3ccc4c(n3)NC(=O)C(C)(C)O4)n2)cc(OC)c1OC` [R406], the figures for the EC50 with AdV5 (Vero cells) and in the data set on AdV3 (Vero cells) were greater than 5000 nM and 940 nM, respectively. Moreover, in the data set on AdV3, the “Selective Index AdV3” value was greater than 5.32. Also, the CC50 with Vero cells is greater than 5000 nM.
In the case of `O=C(/C=C\n1cnc(-c2cc(C(F)(F)F)cc(C(F)(F)F)c2)n1)N1CC(F)(F)C1` [KPT-276], the “Selective Index AdV5” value in the data set with AdV5 was greater than 5.13. Besides, the values for the half-maximal effective concentration (EC50) in the data set with AdV5 (Vero cells) and in the data set on AdV3 (Vero cells) were 970 nM and 100 nM, respectively. The “Selective Index AdV3” value in the data set on AdV3 is on record as greater than 50.46. Further, the CC50 with Vero cells was greater than 5000 nM.
Take `Cl.Cl.O=S(=O)(NCCNC/C=C/c1ccc(Br)cc1)c1cccc2cnccc12` [H 89 2HCl]: the figures for the EC50 in the data set on AdV5 (Vero cells) and in the data set with AdV3 (Vero cells) were greater than 5000 nM and 310 nM, respectively. In addition, the “Selective Index AdV3” value in the data set on AdV3 is recorded as greater than 15.97. Further, the CC50 in the data set with Vero cells was greater than 5000 nM.
As to `COc1cccc(-c2cc(F)ccc2[C@H]2Cc3nc(N)nc(C)c3C(=O)N2)n1` [HSP990], the “Selective Index AdV5” value with AdV5 is 148.47. For the same molecule, the figures for the EC50 in the data set on AdV5 (Vero cells) and in the data set on AdV3 (Vero cells) were 30 nM and 20 nM, respectively. Also, in the data set with AdV3, the “Selective Index AdV3” value is 205.19. The CC50 in the data set with Vero cells stood at 4310 nM.
With `Cc1csc(-c2nnc(Nc3ccc(Oc4ncccc4-c4ccnc(N)n4)cc3)c3ccccc23)c1` [AMG-900], in the data set with AdV5 (Vero cells), the “inhibition of AdV5 (in words)” value was “but not AdV5” and the EC50 is greater than 5000 nM. The “Selective Index AdV3” value in the data set with AdV3 is 226.12. For the same molecule, in the data set on AdV3 (Vero cells), the “inhibition of AdV3 (in words)” value was “potently inhibits only AdV3” and the response was half-maximal at 20 nM (EC50). The “selectivity for Aurora kinases than p38α, Tyk2, and JNK2” value with Aurora A/B/C is reported as greater than 10 fold. In “in vitro”, this molecule had a CC50 at 48 h of 3690 nM.
As to `CNC(=O)Nc1ccc(-c2nc(N3CC4CCC(C3)O4)c3cnn(C4CCC5(CC4)OCCO5)c3n2)cc1` [WYE-125132], the “Selective Index AdV5” value in the data set on AdV5 was greater than 32.47. Moreover, the EC50 in the data set with AdV5 (Vero cells) was 150 nM; in the data set with AdV3 (Vero cells) it was 60 nM. Besides, the “Selective Index AdV3” value in the data set with AdV3 was greater than 89.17. Further, the CC50 with Vero cells is greater than 5000 nM.
Turning to `COc1cccc2cc(-c3nc([C@H]4CC[C@H](C(=O)O)CC4)n4ncnc(N)c34)[nH]c12` [OSI-027], the “Selective Index AdV5” value in the data set on AdV5 is greater than 2.08. The figures for the concentration giving a half-maximal response (EC50) with AdV5 (Vero cells) and in the data set on AdV3 (Vero cells) were 2400 nM and 1380 nM, respectively. The “Selective Index AdV3” value in the data set on AdV3 is reported as greater than 3.62. Besides, in the data set “in vitro”, the CC50 at 48 h was greater than 5000 nM.
`COC1(c2sc3c(N4CCOCC4)nc(-c4cnc(N)nc4)nc3c2C)COC1` [GNE-317]: the results for the EC50 in the data set on AdV5 (Vero cells) and in the data set on AdV3 (Vero cells) were 590 nM and 260 nM, respectively. In addition, the CC50 in the data set on Vero cells is greater than 5000 nM.
With `C=CCNC1=C2C[C@@H](C)C[C@H](OC)[C@H](O)[C@@H](C)/C=C(\C)[C@H](OC(N)=O)[C@@H](OC)/C=C\C=C(/C)C(=O)NC(=CC1=O)C2=O` [17-AAG], the “Selective Index AdV5” value with AdV5 was greater than 0.46. The EC50 in the data set with AdV5 (Vero cells) is greater than 5000 nM; in the data set on AdV3 (Vero cells), 500 nM. Moreover, the “Selective Index AdV3” value in the data set with AdV3 was greater than 9.93. Besides, the “reported inhibition of replication of adenovirus 5” value in the data set on adenovirus 5 is on record as “inhibit the replication of adenovirus 5”. This molecule returned a CC50 at 48 h in the data set “in vitro” greater than 5000 nM.
For the molecule `COc1ccc(-c2cc3c(C)nc(N)nc3n([C@H]3CC[C@H](OCCO)CC3)c2=O)cn1` [PF-04691502], the “Selective Index AdV5” value in the data set on AdV5 was greater than 41.46. Besides, the EC50 in the data set on AdV5 (Vero cells) worked out at 120 nM; in the data set with AdV3 (Vero cells), 60 nM. For the same molecule, in the data set on AdV3, the “Selective Index AdV3” value was greater than 86.01. Further, the CC50 with Vero cells is greater than 5000 nM.
Take `N#CC1(c2ccc(NC(=O)c3cccnc3NCc3ccncc3)cc2)CCCC1` [Apatinib]: the “Selective Index AdV5” value in the data set with AdV5 is greater than 1.39. For the same molecule, the values for the concentration for a half-maximal effect (EC50) with AdV5 (Vero cells) and in the data set on AdV3 (Vero cells) were 3600 nM and 320 nM, respectively. In addition, in the data set on AdV3, the “Selective Index AdV3” value is on record as greater than 15.41. Also, the CC50 at 48 h in “in vitro” is greater than 5000 nM.
Consider `COC1=C2C[C@@H](C)C[C@H](OC)[C@H](O)[C@@H](C)/C=C(\C)[C@H](OC(N)=O)[C@@H](OC)/C=C\C=C(/C)C(=O)NC(=CC1=O)C2=O` [Geldanamycin], for which the EC50 in the data set on AdV5 (Vero cells) was greater than 5000 nM; with AdV3 (Vero cells), 1480 nM. Besides, the “Selective Index AdV3” value in the data set with AdV3 is greater than 3.38. The CC50 at 48 h in the data set “in vitro” is greater than 5000 nM.
Turning to `COc1cccc(-c2ccc(NC(=O)C3=C(C(=O)O)CCC3)c(F)c2)c1` [Vidofludimus], the “Selective Index AdV5” value in the data set on AdV5 was greater than 5.35. Besides, the values for the EC50 in the data set on AdV5 (Vero cells) and in the data set with AdV3 (Vero cells) were 940 nM and 1630 nM, respectively. Moreover, the “Selective Index AdV3” value with AdV3 is given as greater than 3.07. In the data set “in vitro” (Vero cells), the CC50 at 48 h is greater than 5000 nM.
For `CC(C)n1nc(-c2ccc3oc(N)nc3c2)c2c(N)ncnc21` [INK 128] the same measures were 61.27, 10 nM, 10 nM, 161.78 and 850 nM.
With `O=C1c2ccc(Nc3ccc(F)cc3F)cc2CCc2ccc(OC[C@H](O)CO)cc21` [Skepinone-L], the “Selective Index AdV5” value with AdV5 turned out to be 0.83. Moreover, the results for the EC50 in the data set with AdV5 (Vero cells) and in the data set on AdV3 (Vero cells) were 2560 nM and 180 nM, respectively. Besides, the “Selective Index AdV3” value with AdV3 is 11.84. In the data set “in vitro”, this molecule came in with a CC50 at 48 h of 2140 nM.
As to `COc1cc(Nc2ncc(F)c(Nc3ccc4c(n3)N(COP(=O)(O)O)C(=O)C(C)(C)O4)n2)cc(OC)c1OC` [R788], the “Selective Index AdV5” value with AdV5 was 1.48. For the same molecule, the EC50 was 1060 nM with AdV5 (Vero cells) and 230 nM in the data set with AdV3 (Vero cells). Moreover, in the data set on AdV3, the “Selective Index AdV3” value is listed as 6.65. In addition, the CC50 at 48 h in the data set “in vitro” (Vero cells) worked out at 1560 nM.
Take `N#Cc1c(Oc2ccc(F)c(NC(=O)Cc3cccc(C(F)(F)F)c3)c2)ccc2nc(NC(=O)C3CC3)sc12` [TAK-632]: the “Selective Index AdV5” value in the data set with AdV5 is recorded as 12.3. Moreover, the EC50 in the data set on AdV5 (Vero cells) turned out to be 160 nM; in the data set on AdV3 (Vero cells), 180 nM. Further, in the data set with AdV3, the “Selective Index AdV3” value is 11.15. In addition, the CC50 with Vero cells amounted to 1990 nM.

In general, EC50 refers to the concentration that produces a half-maximal response.

The values are drawn from publication PMC9144521 (Viruses, 2022).
